Source: patent publication US20230406821A1, “STRIGOLACTONE DERIVATIVES” (Plant Response, Inc., priority 2017, published 2023)

Columns and labels:
[1] = test system: A. thaliana Columbia (Col-0); test: Root hair elongation on phosphate limiting media; format: in vivo, Arabidopsis thaliana; conditions: in DMSO (0.1%), images after seven days, vs DMSO (FIG. 3)
Source text: FIG. 3 is a boxplot representing the maximum root hair length in the root apical zone of A. thaliana treated with the control solvent DMSO, strigolactone molecule MBS-127 in DMSO, and strigolactone molecule MBS-128 in DMSO. Stars indicate significant differences relative to the DMSO control (*: adjusted p-value <0.01; p-values adjusted for multiple-hypothesis testing); non-parametric Mann-Whitney U-tests were used to assess significance. Representative images show root hairs in the root apical zone of plants treated with the control solvent DMSO, the strigolactone molecule MBS-127 in DMSO, and the strigolactone molecule MBS-128 in DMSO. Scale bars equal 1 mm. […]
In this experiment sterilized seeds of the A. thaliana Columbia (Col-0) ecotype were planted on growth media (Murashige and Skoog (MS) M404 with vitamins (2.2 g/L), 0.5% sucrose, 0.05% IVIES hydrate, 0.6% PhytoBlend™) and grown for nine days. […] The longest root hair, within the root apical zone, was measured from the images using ImageJ. […]

Z. mays = test: Root hair elongation in maize under insufficient phosphate; format: in vivo, Zea mays; conditions: various nutrient levels, shown under insufficient phosphate conditions, vs DMSO (FIG. 4)
Source text: FIG. 4 is a boxplot graph representing the distribution of maximum root hair length in the root apical zone of Z. mays with the control solvent DMSO, strigolactone molecule MBS-127 in DMSO, and strigolactone molecule MBS-128 in DMSO. Stars indicate significant differences relative to the DMSO control (*: adjustedp-value <0.1; p-values were adjusted for multiple-hypothesis testing using a Bonferroni correction). Representative images show root hairs in the root apical zone of plants treated with the control solvent DMSO, strigolactone molecule MBS-127 in DMSO, and strigolactone molecule MBS-128 in DMSO. Scale bars equal 10 mm.

[2] = test system: Arabidopsis thaliana homozygous max4 knockout mutant; test: Complementation of ectopic shoot branching in max4 strigolactone biosynthesis mutant; format: in vivo; conditions: max4 mutant line, 10 μM in 0.5× Hoagland's reservoir solution, 0.1% DMSO, 3 weeks of treatment, vs DMSO control (FIG. 1)
Source text: FIG. 1 is a plot of the number of secondary bolts over 0.5 cm long of strigolactone biosynthesis mutant, homozygous max4 knockout, plants that have a primary bolt over 6 cm long treated with solution containing control solvent DMSO, strigolactone molecule MBS-127 in DMSO, and strigolactone molecule MBS-128 in DMSO. Stars indicate significant differences relative to the DMSO control based on the Welch's t-test (*: adjusted p-value <0.1; p-values adjusted for multiple-hypothesis testing
The ability of a novel compound to act in an equivalent manner to a native strigolactone can be assessed by testing its ability to complement phenotypes caused by mutations that disrupt the natural biosynthesis of strigolactones within the plant.
The metric used to assess branching was the number of secondary bolts over 0.5 cm in length in plants that have a primary bolt over 6 cm long. Assessments were made after treatments with solution containing control solvent DMSO, the strigolactone molecule MBS-127 in DMSO, and the strigolactone molecule MBS-128 in DMSO as detailed below. Stratified A. thaliana homozygous max4 knockout mutant seeds were planted on rockwool plugs suspended above reservoirs of 0.5× Hoagland's solution. The plants were grown under 16 hours of light per day at 22° C. and at 19° C. during the nights throughout the experiment. […]

[3] = test system: A. thaliana Columbia (Col-0) seedlings; test: Desiccation stress survival assay of seedlings; format: in vivo, Arabidopsis thaliana; conditions: 50 μM in media, 0.4% DMSO, three days, 4 hours desiccation, seven days recovery (FIG. 5)
Source text: Post germination desiccation is an extreme form of dehydration which can be used as a survival assay for testing abiotic stress tolerance in plants. While desiccation stress is distinct from the gradual onset of drought typically experienced in an agricultural setting, the response in the plant has many commonalities across both cases (Fernando, V. C., & Schroeder, D. F. “Role of ABA in Arabidopsis Salt, Drought, and Desiccation Tolerance,” (2016), pp. 507-518), and increased tolerance in one case can often predict tolerance in the other.
In this experiment sterilized and stratified seeds of the A. thaliana Columbia (Col-0) were planted on growth media (Murashige and Skoog (MS) M404 with vitamins (2.2 g/L), 0.5% sucrose, 0.05% IVIES hydrate, 0.6% PhytoBlend™) and grown for nine days in a growth chamber with continuous light at 22° C. The seedlings were then transplanted to same media supplemented with the control solvent DMSO, strigolactone molecule MBS-127 in DMSO, or strigolactone molecule MBS-128 in DMSO. The final concentration of DMSO in the media was 0.4% and the concentration of MBS-127 and MBS-128 was 50 μM. After three days of growth on the treatment media the seedlings were photographed and then transplanted to dry filter paper and subjected to 4 hours of desiccation stress. […]

SMILES	root hair elongation and proliferation (maximum root hair length in the root apical zone) [1]	root hair elongation (maximum root hair length in the root apical zone) (Z. mays)	ectopic branching phenotype (number of secondary bolts over 0.5 cm on plants with primary bolt over 6 cm) [2]	survival and vigor of seedlings exposed to severe desiccation stress [3]
COC(=O)/C=C/OC1C=C(C)C(=O)O1 (centres unmarked) [MBS-127, 3-(4-Methyl-5-oxo-2,5-dihydro-furan-2-yloxy)-acrylic acid methyl ester]	enhance root hair elongation and proliferation	induce root hair elongation	effective in reducing the ectopic branching phenotype	increase the survival and vigor
COC(=O)/C=C/OC1(C)C=C(C)C(=O)O1 (centres unmarked) [MBS-128, methyl (E)-3-((2,4-dimethyl-5-oxo-2,5-dihydrofuran-2-yl)oxy)acrylate]	enhance root hair elongation and proliferation	induce root hair elongation	effective in reducing the ectopic branching phenotype	increase the survival and vigor
